Assay results: patent US20200131669A1, “CYCLIC PEPTIDE COMPOUND HAVING HIGH MEMBRANE PERMEABILITY, AND LIBRARY CONTAINING SAME” (Chugai Seiyaku Kabushiki Kaisha, priority 2017, published 2020)
Starred links: 1 amine or outer side, 2 acyl side, 3 side chain; linkers in the order of their positions; H or OH if unused. Positions of bridges follow the written chain, without caps; N, C: chain ends. Non-standard residues stand in square brackets, D forms with d. Residues, ends and D or L forms follow the SMILES beside them. *: point of attachment. X4 = O=C([C@@H]1C[C@@H](N2CCC(F)(F)CC2)CN1[*:1])[*:2]; X6 = CN([C@@H](CCN1CCC(F)(F)CC1)C(=O)[*:2])[*:1]; Phe(4-CF3) = N[C@@H](Cc1ccc(C(F)(F)F)cc1)C(=O)O; Phe(4-CHF2) = N[C@@H](Cc1ccc(C(F)F)cc1)C(=O)O; NMePhe(3-Cl) = CN[C@@H](Cc1cccc(Cl)c1)C(=O)O; hNle(7,7-F2) = N[C@@H](CCCCC(F)F)C(=O)O; NMehPhe = CN[C@@H](CCc1ccccc1)C(=O)O; X3 = O=C([C@H](CCCCO)N[*:1])[*:2]; NMeF = CN[C@@H](Cc1ccccc1)C(=O)O; NMeI = CC[C@H](C)[C@H](NC)C(=O)O; CH2CH(OH)CF3 = OC(C*)C(F)(F)F; NMeL = CN[C@@H](CC(C)C)C(=O)O; Propyl(2R-OH) = C[C@@H](O)C*; NMeV = CN[C@H](C(=O)O)C(C)C; NPentylGly = CCCCCNCC(=O)O; NMeS = CN[C@@H](CO)C(=O)O; NMeA = CN[C@@H](C)C(=O)O; Piperidide = C1CCN(*)CC1; Abu = CC[C@H](N)C(=O)O; Me2NCH2CH2 = CN(C)CC*; NBuGly = CCCCNCC(=O)O; Isopentyl = CC(C)CC*; NPrGly = CCCNCC(=O)O; X2 = Fc1cncc(C*)c1; Bn = c1ccc(C*)cc1; Sar = CNCC(=O)O; tBu = CC(C)(C)*

experiment: Caco-2 membrane permeability, improved method as used in the following Examples (96-well, 20 to 24 h preincubation); format: in vitro ADME; details: human, Caco-2, Caco-2
In short: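 Papp (cm/sec) was derived from LC/MS of basal samples collected 180 min after apical dosing in FaSSIF/HBSS pH 6.0 with 1% DMSO, against a basal HBSS pH 7.4 receiver containing 4% BSA. Three-week Caco-2 cultures were first preincubated with compound in DMEM+FaSSIF at 37 °C for 20–24 h.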

Row | Compound | Papp A→B at 180 min
1 | CC(C)C[C@H]1C(=O)N[C@@H](COC(C)(C)C)C(=O)N(C)[C@@H](Cc2ccccc2)C(=O)N(C)[C@@H](C(C)C)C(=O)N[C@H](C(=O)N2CCCCC2)CC(=O)N[C@H](C(C)C)C(=O)N(C)[C@@H](Cc2ccccc2)C(=O)N[C@@H](CCCCC(F)F)C(=O)N(C)[C@@H](CC(C)C)C(=O)N[C@@H]([C@@H](C)O)C(=O)N(C)CC(=O)N1C [pd331] ([dV][NMeF][hNle(7,7-F2)][NMeL]T[Sar][NMeL]S(tBu)[NMeF][NMeV]D-Piperidide; lactam N-11) | 2.1 ×10⁻⁶ cm/s
2 | CC(C)C[C@@H]1NC(=O)[C@H](CC(C)C)N(C)C(=O)CN(C)C(=O)[C@H]([C@@H](C)O)NC(=O)[C@H](CC(C)C)N(C)C(=O)[C@H](C(C)C)NC(=O)[C@H](Cc2ccccc2)N(C)C(=O)[C@@H](C)NC(=O)C[C@@H](C(=O)N2CCCCC2)NC(=O)[C@H](CC(C)C)N(C)C(=O)[C@H](CCc2ccccc2)N(C)C1=O [pd321] ([dA][NMeF]V[NMeL]T[Sar][NMeL]L[NMehPhe][NMeL]D-Piperidide; lactam N-11) | 1.3 ×10⁻⁶ cm/s
3 | CC(C)C[C@H]1C(=O)N[C@@H]([C@@H](C)O)C(=O)N(C)CC(=O)N(C)[C@@H](Cc2ccccc2)C(=O)N(C)[C@@H](CC(C)C)C(=O)N[C@@H](COC(C)(C)C)C(=O)N(C)[C@@H](CC(C)C)C(=O)N[C@H](C(=O)N2CCCCC2)CC(=O)N(C)CC(=O)N(C)[C@@H](Cc2ccccc2)C(=O)N[C@@H](COCc2ccccc2)C(=O)N1C [pd369] ([Sar][NMeF]S(Bn)[NMeL]T[Sar][NMeF][NMeL]S(tBu)[NMeL]D-Piperidide; lactam N-11) | 3 ×10⁻⁶ cm/s
4 | CC(C)C[C@H]1C(=O)N(C)[C@@H](CC(C)C)C(=O)N(C)[C@@H](CC(C)C)C(=O)N(C)[C@@H](Cc2ccccc2)C(=O)N[C@@H]([C@@H](C)O)C(=O)N(C)[C@@H](Cc2ccccc2)C(=O)N(C)[C@@H](CC(C)C)C(=O)N2C[C@H](N3CCC(F)(F)CC3)C[C@H]2C(=O)N[C@H](C(=O)N2CCCCC2)CC(=O)N[C@@H](C(C)C)C(=O)NCC(=O)N1C [pd460] (VG[NMeL][NMeL][NMeL][NMeF]T[NMeF][NMeL][X4]D-Piperidide; lactam N-11) | 1.2 ×10⁻⁶ cm/s
5 | CC[C@@H]1NC(=O)[C@H](Cc2ccccc2)N(C)C(=O)[C@H](COCCC(C)C)N(C)C(=O)[C@H](CC(C)C)NC(=O)[C@H](C)N(C)C(=O)C[C@@H](C(=O)N2CCCCC2)NC(=O)[C@H](CC(C)C)N(C)C(=O)CN(C)C(=O)[C@H]([C@@H](C)O)NC(=O)[C@H](CC(C)C)N(C)C(=O)[C@H](Cc2ccccc2)N(C)C1=O [pd307] ([NMeA]L[NMeS](Isopentyl)[NMeF][Abu][NMeF][NMeL]T[Sar][NMeL]D-Piperidide; lactam N-11) | 2.9 ×10⁻⁶ cm/s
6 | CC[C@H](C)[C@@H]1NC(=O)[C@H](CC(C)C)N(C)C(=O)[C@H](COCC(O)C(F)(F)F)NC(=O)[C@H](Cc2ccccc2)N(C)C(=O)CN(C)C(=O)C[C@@H](C(=O)N2CCCCC2)NC(=O)[C@H](CC(C)C)N(C)C(=O)[C@H](COC(C)(C)C)NC(=O)[C@H](CC(C)C)N(C)C(=O)[C@H](Cc2ccccc2)N(C)C(=O)CN(C)C1=O (stereo partly drawn) [pd504] ([Sar][NMeF]S(CH2CH(OH)CF3)[NMeL]I[Sar][NMeF][NMeL]S(tBu)[NMeL]D-Piperidide; lactam N-11) | 4.1 ×10⁻⁶ cm/s
7 | CC(C)C[C@@H]1NC(=O)[C@H](C)N(C)C(=O)C[C@@H](C(=O)N2CCCCC2)NC(=O)[C@H](CC(C)C)N(C)C(=O)CN(C)C(=O)[C@H](CCCCO)NC(=O)[C@H](CC(C)C)N(C)C(=O)[C@H](Cc2ccccc2)N(C)C(=O)[C@H](CC(C)C)NC(=O)[C@H](Cc2ccccc2)N(C)C(=O)[C@H](CC(C)C)N(C)C1=O [pd451] ([NMeA]L[NMeL][NMeF]L[NMeF][NMeL][X3][Sar][NMeL]D-Piperidide; lactam N-11) | 4.1 ×10⁻⁶ cm/s
8 | CC[C@H](C)[C@H]1C(=O)N[C@@H]([C@@H](C)O)C(=O)N(C)CC(=O)N(C)[C@@H](CC(C)C)C(=O)N[C@H](C(=O)N2CCCCC2)CC(=O)N(C)[C@@H](C)C(=O)N[C@@H](CC(C)C)C(=O)N(C)[C@@H](CC(C)C)C(=O)N(C)[C@@H](Cc2ccccc2)C(=O)N[C@@H](CCCCC(F)F)C(=O)N(C)[C@@H](Cc2ccccc2)C(=O)N1C [pd335] ([NMeA]L[NMeL][NMeF][hNle(7,7-F2)][NMeF][NMeI]T[Sar][NMeL]D-Piperidide; lactam N-11) | 2 ×10⁻⁶ cm/s
9 | CCCCN1CC(=O)N(C)[C@@H](CC(C)C)C(=O)N[C@@H](COC(C)(C)C)C(=O)N(C)[C@@H](Cc2ccccc2)C(=O)N(C)[C@@H](C(C)C)C(=O)N[C@H](C(=O)N2CCCCC2)CC(=O)N[C@H](C(C)C)C(=O)N(C)[C@@H](Cc2ccccc2)C(=O)N[C@@H](COCCN(C)C)C(=O)N(C)[C@@H](CC(C)C)C(=O)N[C@@H]([C@@H](C)O)C1=O [pd53] ([dV][NMeF]S(Me2NCH2CH2)[NMeL]T[NBuGly][NMeL]S(tBu)[NMeF][NMeV]D-Piperidide; lactam N-11) | 0.14 ×10⁻⁶ cm/s
10 | CCCCCN1CC(=O)N[C@@H]([C@@H](C)O)C(=O)N(C)[C@@H](C)C(=O)N(C)[C@@H](CC(C)C)C(=O)N[C@@H](COC(C)(C)C)C(=O)N(C)[C@@H](Cc2ccccc2)C(=O)N(C)[C@@H](CC(C)C)C(=O)N[C@H](C(=O)N2CCCCC2)CC(=O)N[C@H](C)C(=O)N(C)[C@@H](Cc2ccccc2)C(=O)N[C@@H](C(C)C)C1=O [pd407] ([dA][NMeF]V[NPentylGly]T[NMeA][NMeL]S(tBu)[NMeF][NMeL]D-Piperidide; lactam N-11) | 3 ×10⁻⁶ cm/s
11 | CCCCN1CC(=O)N(C)[C@@H](Cc2ccccc2)C(=O)N[C@@H](CC(C)C)C(=O)N(C)[C@@H](CC(C)C)C(=O)N[C@@H]([C@@H](C)O)C(=O)N(C)CC(=O)N(C)[C@@H](Cc2ccccc2)C(=O)N(C)[C@@H](CCN2CCC(F)(F)CC2)C(=O)N[C@@H](CC(C)C)C(=O)N(C)[C@@H](C(C)C)C(=O)N[C@H](C(=O)N2CCCCC2)CC1=O [pd395] ([NBuGly][NMeF]L[NMeL]T[Sar][NMeF][X6]L[NMeV]D-Piperidide; lactam N-11) | 1.7 ×10⁻⁶ cm/s
12 | CC[C@H](C)[C@@H]1NC(=O)[C@H](CC(C)C)N(C)C(=O)CN(C)C(=O)C[C@@H](C(=O)N2CCCCC2)NC(=O)[C@H](C(C)C)N(C)C(=O)[C@H](Cc2ccc(C(F)F)cc2)NC(=O)[C@H](CC(C)C)N(C)C(=O)[C@H](Cc2ccccc2)N(C)C(=O)CN(C)C(=O)[C@H]([C@@H](C)O)NC(=O)[C@H](CC(C)C)N(C)C1=O [pd475] ([Sar][NMeL]I[NMeL]T[Sar][NMeF][NMeL][Phe(4-CHF2)][NMeV]D-Piperidide; lactam N-11) | 4.2 ×10⁻⁶ cm/s

same assay, conditions: human, Caco-2, Caco-2 (cm/sec)

Row | Compound | Papp A→B at 180 min
13 | CC(C)C[C@H]1C(=O)N[C@@H](COC(C)(C)C)C(=O)N(C)[C@@H](Cc2ccccc2)C(=O)N(C)[C@@H](CC(C)C)C(=O)N[C@H](C(=O)N2CCCCC2)CC(=O)N[C@@H](C)C(=O)N(C)[C@@H](Cc2cccc(Cl)c2)C(=O)N[C@@H](C(C)C)C(=O)N(C)[C@@H](C(C)C)C(=O)N[C@@H]([C@@H](C)O)C(=O)N(C)CC(=O)N1C [pd154] (A[NMePhe(3-Cl)]V[NMeV]T[Sar][NMeL]S(tBu)[NMeF][NMeL]D-Piperidide; lactam N-11) | 1.4 ×10⁻⁶ cm/s
14 | CC[C@H](C)[C@H]1C(=O)N[C@@H]([C@@H](C)O)C(=O)N(C)CC(=O)N(C)[C@@H](CC(C)C)C(=O)N[C@H](C(=O)N2CCCCC2)CC(=O)N(C)[C@@H](C(C)C)C(=O)N[C@@H](COCc2cncc(F)c2)C(=O)N(C)[C@@H](CC(C)C)C(=O)N(C)[C@@H](Cc2ccccc2)C(=O)N[C@@H](CC(C)C)C(=O)N(C)[C@@H](Cc2ccccc2)C(=O)N1C [pd181] ([NMeV]S(X2)[NMeL][NMeF]L[NMeF][NMeI]T[Sar][NMeL]D-Piperidide; lactam N-11) | 1.1 ×10⁻⁶ cm/s
15 | CC(C)C[C@H]1C(=O)N[C@H](C(=O)N(C)[C@@H](Cc2ccccc2)C(=O)N[C@@H](C)C(=O)N2CCCCC2)CC(=O)N(C)[C@@H](C)C(=O)N[C@@H]([C@@H](C)O)C(=O)N(C)[C@@H](C)C(=O)N(C)[C@@H](CC(C)C)C(=O)N[C@@H](C(C)C)C(=O)N(C)[C@@H](Cc2ccccc2)C(=O)N[C@@H](Cc2ccccc2)C(=O)N1C [pd212] ([NMeA]T[NMeA][NMeL]V[NMeF]F[NMeL]D[NMeF]A-Piperidide; lactam N-9) | 1.4 ×10⁻⁶ cm/s
16 | CCCN1CC(=O)N(C)[C@@H](CC(C)C)C(=O)N[C@@H](COC(C)(C)C)C(=O)N[C@H](C(=O)N2CCCCC2)CC(=O)N(C)[C@@H](CC(C)C)C(=O)N[C@@H](Cc2ccc(C(F)(F)F)cc2)C(=O)N(C)[C@@H](CC(C)C)C(=O)N(C)[C@@H]([C@@H](C)CC)C(=O)N[C@@H]([C@@H](C)O)C1=O [pd152] ([NMeL][Phe(4-CF3)][NMeL][NMeI]T[NPrGly][NMeL]S(tBu)D-Piperidide; lactam N-9) | 1.2 ×10⁻⁶ cm/s
17 | CC(C)C[C@@H]1NC(=O)[C@H](Cc2ccccc2)N(C)C(=O)[C@@H]2CCCN2C(=O)C[C@@H](C(=O)N2CCCCC2)NC(=O)[C@H](Cc2ccccc2)N(C)C(=O)[C@H](Cc2ccccc2)N(C)C(=O)[C@H](COC(C)(C)C)NC(=O)[C@H](CC(C)C)N(C)C(=O)CN(C)C(=O)[C@H]([C@@H](C)O)NC(=O)[C@H](CC(C)C)N(C)C1=O [pd203] (P[NMeF]L[NMeL]T[Sar][NMeL]S(tBu)[NMeF][NMeF]D-Piperidide; lactam N-11) | 2.1 ×10⁻⁶ cm/s

same assay, conditions: human; Papp, Caco-2 membrane permeability, improved method; read-out: Caco-2

Row | Compound | Papp A→B at 180 min
18 | CC(C)C[C@H]1C(=O)N[C@@H](COC(C)(C)C)C(=O)N(C)[C@@H](Cc2ccccc2)C(=O)N(C)[C@@H](CC(C)C)C(=O)N[C@H](C(=O)N2CCCCC2)CC(=O)N[C@@H](C(C)C)C(=O)N(C)[C@@H](Cc2ccccc2)C(=O)N[C@@H](COC[C@@H](C)O)C(=O)N(C)[C@@H](CC(C)C)C(=O)N[C@@H](C(C)C)C(=O)N(C)CC(=O)N1C [pd492] (V[NMeF]S(Propyl(2R-OH))[NMeL]V[Sar][NMeL]S(tBu)[NMeF][NMeL]D-Piperidide; lactam N-11) | 2.5 ×10⁻⁶ cm/s
